Entries after “also recorded” stand apart in the source; their conditions may differ. Counter-ions that a name gives are not always drawn.
Experiments:
[1] = test system: Eimeria tenella GD strains; assay: Comparison with other anticoccidial drugs in chickens infected with Eimeria tenella GD (Embodiment 3); type: in vivo; set-up: oocyst value: scale not given here; details: for anticoccidial index (ACI) / number of oocysts in cecum / lesion value / survival rate / average weight gain / bloody feces scoring / oocyst value / relative weight gain rate: 125 ppm in feed; for number of oocysts in cecum / lesion value / average weight gain: 7th day; for lesion value: cecum, scale 0-40; for survival rate / average weight gain / bloody feces scoring: chickens; for bloody feces scoring: 5 days after infecting, score 0-4; for oocyst value: converted per Table 2; for relative weight gain rate: vs non-infected non-drug control
Text: (§1) 1-day-old Lingnan yellow chickens, purchased from Poultry Research Unit, Bureau of Animal Husbandry, Guangdong Academy of Agricultural Sciences, bred under coccidium-free environment, and subjected to experiment after no coccidium oocyst is found in feces through microscopic examination when the chickens are 14 days old. Perfect compound feed for chickens: prepared by Huizhou Yuantai Feed Co. Ltd., and containing no antibacterial or anticoccidial additive.
Eimeria tenella GD strains, having no resistance to various anticoccidial drugs. Breeding and amplifying in one chicken before the experiment, collecting fresh oocysts, sporulating, and preserving at 4° C. for later use.
Weighing the 14-day-old experiment chickens one by one, rejecting emaciated chickens or overweighted chickens, selecting healthy chickens of which the individual body weight difference is within 20 g, and dividing into 6 groups with 30 chickens in each group. Groups 1 and 2 are respectively a non-drug-applied and non-coccidium-killed control group and a coccidium-infected and non-drug-applied control group, and Groups 3-6 are respectively added with different anticoccidial drugs according to Table 4. Feeding with feed containing different drugs on the day of experiment grouping, enabling the chickens to freely take in the feed, and feeding the chickens until the experiment ends.
(§2) Except the non-coccidium-infected and non-drug-applied control group, giving each experiment chicken in each experiment group with 2.5×10^5 eimeria tenella sporulated oocysts via the crop on next day of the grouping day. During experiment, observing and recording the spirit, appetite, bloody feces situation, death count and the like of the chickens every day. Performing bloody feces scoring on the chickens in each group 5 days after infecting. On the 7th day, respectively weighing all the chickens in each group, then autopsying them, observing cecum lesions and counting the oocysts in the cecum.
The evaluation standard is the same with Embodiment 2.

[2] = test system: Eimeria tenella GD strains; assay: Anticoccidial dose research in chickens infected with Eimeria tenella GD (Embodiment 2); type: in vivo; set-up: oocyst value: scale not given here; details: for number of oocysts in cecum / average weight gain: 7th day; for lesion value: cecum, 7 days after infecting, scale 0-40; for survival rate / average weight gain / bloody feces scoring: chickens; for bloody feces scoring: 5 days after infecting, score 0-4; for oocyst value: converted per Table 2; for relative weight gain rate: vs non-infected non-drug control
Text: as §1
Eimeria tenella GD strains, having no resistance to various anticoccidial drugs. Breeding and amplifying in chickens before the experiment, collecting fresh oocysts, sporulating, and preserving at 4° C. for later use.
Weighing the 14-day-old experiment chickens one by one, rejecting emaciated or overweighted chickens, selecting healthy chickens of which the individual body weight difference is within 20 g, and dividing to 9 groups with 20 chickens in each group. Groups 1 and 2 are respectively a non-drug-applied and non-coccidium-killed control group and a coccidium-infected and non-drug-applied control group, and Groups 3-9 are experiment groups applied with different doses of the fluoroethyl thiamine hydrochloride according to Table 1. Adding different doses of drugs to feeds and mixing uniformly on the day of experiment grouping, enabling the chickens to freely take in the feeds, and feeding the chickens until the experiment ends.
as §2, with “non-drug-applied control group (Group 1), giving each” for “non-drug-applied control group, giving each”, “crop on the next day” for “crop on next day”
2.3.1 Bloody feces scoring: according to the method in the references: 0 point, no bloody feces, 1 point, less than 25% of bloody feces; 2 points, 25%-50% of bloody feces; 3 points, 50%-75% of bloody feces; 4 points, more than 75% of bloody feces.
2.3.2 Weight gain: respectively weighing each chicken when the experiment starts and ends, and calculating the average weight gain and relative weight gain rate. The relative weight gain rate=(the average weight gain in the experiment groups/the average weight gain in the non-infected and non-drug-applied control group)×100%.
2.3.3 Survival rate: recording the number of dead chickens of each group, autopsying to determine the death cause, and calculating the survival rate. The survival rate=(the total number of the chickens in the experiment groups−the number of the chickens dying of coccidium infection during the experiment)/the total number of the chickens in the experiment groups×100%.
2.3.4 Lesion standard: killing the chickens 7 days after infecting, performing cecum lesion scoring according to the lesion scoring of Johnson and Reid (1970), and converting lesion points to lesion values.
lesion scoring (taking the serious side if the two sides of the cecum are inconsistent in lesion): 0 point, no macroscopic lesion; 1 point, a small amount of scattered petechiae on the cecum wall, no incrassation on the cecum wall, normal contents; 2 points, a large amount of lesion, obviously bloody contents in the cecum, slight incrassation on the cecum wall, normal contents; 3 points, a large a mount of blood or intestinal core (blood clot or gray caseous banana-shaped lumps) in the cecum, obvious incrassation on the cecum wall, a small amount of feces in the cecum; 4 points, cecum swelling caused by filling of a large amount of blood or intestinal core with or without feces in the intestinal core. Recording the dead chicken lesion as 4 points as well. […]

CCCc1ncc(C[n+]2ccccc2C)c(N)n1 [amprolium, Amprolium, reference compound]
anticoccidial index (ACI) [1]: 191.2
number of oocysts in cecum [1]: 0.566 ×10^6/chicken
lesion value [1]: 4
survival rate [1]: 100%
average weight gain [1]: 166.3 g/chicken
bloody feces scoring [1]: 0
oocyst value [1]: 1
relative weight gain rate [1]: 96.2%

CCc1ncc(C[n+]2csc(CCF)c2C)c(N)n1 [fluoroethyl thiamine hydrochloride, 3-[(4-amino-2-ethyl-5-pyrimidyl)-methylene]-5-(2-fluoroethyl)-4-methyl thiazole chloride hydrochloride]
anticoccidial index (ACI) [1]: 201.6
comparison with the other anticoccidial drugs ([1]; 125 ppm in feed (maduramicin 5 ppm), hydrochloride): superior to amprolium and maduramicin in lesion and oocyst value; also recorded: superior to nicarbazin in weight gain
number of oocysts in cecum [1]: 0 ×10^6/chicken
lesion value [1]: 0
survival rate [1]: 100%
average weight gain [1]: 175.6 g/chicken
bloody feces scoring [1]: 0
oocyst value [1]: 0
relative weight gain rate [1]: 101.6%
anticoccidial index (ACI) ([2]; 10 ppm in feed): 136.7
number of oocysts in cecum ([2]; 10 ppm in feed): 2.965 ×10^6/chicken
lesion value ([2]; 10 ppm in feed): 24.5
survival rate ([2]; 10 ppm in feed): 90%
average weight gain ([2]; 10 ppm in feed): 135.7 g/chicken
bloody feces scoring ([2]; 10 ppm in feed): 2
oocyst value ([2]; 10 ppm in feed): 10
relative weight gain rate ([2]; 10 ppm in feed): 81.2%
anticoccidial index (ACI) ([2]; 25 ppm in feed): 144.6
number of oocysts in cecum ([2]; 25 ppm in feed): 2.325 ×10^6/chicken
lesion value ([2]; 25 ppm in feed): 18.8
survival rate ([2]; 25 ppm in feed): 90%
average weight gain ([2]; 25 ppm in feed): 139.5 g/chicken
bloody feces scoring ([2]; 25 ppm in feed): 2
oocyst value ([2]; 25 ppm in feed): 10
relative weight gain rate ([2]; 25 ppm in feed): 83.4%
anticoccidial index (ACI) ([2]; 50 ppm in feed): 165.5
drug efficiency level judged from the anticoccidial index ([2]; 50 ppm in feed): intermediate-efficiency anticoccidial drugs (intermediate-efficiency anticoccidial drugs if 160≦ACI<180)
number of oocysts in cecum ([2]; 50 ppm in feed): 3.65 ×10^6/chicken
lesion value ([2]; 50 ppm in feed): 11.2
survival rate ([2]; 50 ppm in feed): 100%
average weight gain ([2]; 50 ppm in feed): 144.9 g/chicken
bloody feces scoring ([2]; 50 ppm in feed): 1
oocyst value ([2]; 50 ppm in feed): 10
relative weight gain rate ([2]; 50 ppm in feed): 86.7%
anticoccidial index (ACI) ([2]; 75 ppm in feed): 176.4
drug efficiency level judged from the anticoccidial index ([2]; 75 ppm in feed): intermediate-efficiency anticoccidial drugs (intermediate-efficiency anticoccidial drugs if 160≦ACI<180)
number of oocysts in cecum ([2]; 75 ppm in feed): 2.15 ×10^6/chicken
lesion value ([2]; 75 ppm in feed): 8.5
survival rate ([2]; 75 ppm in feed): 100%
average weight gain ([2]; 75 ppm in feed): 158.7 g/chicken
bloody feces scoring ([2]; 75 ppm in feed): 0
oocyst value ([2]; 75 ppm in feed): 10
relative weight gain rate ([2]; 75 ppm in feed): 94.9%
anticoccidial index (ACI) ([2]; 100 ppm in feed): 195.9
drug efficiency level judged from the anticoccidial index ([2]; 100 ppm in feed): high-efficiency anticoccidial drugs (high-efficiency anticoccidial drugs if ACI≧180)
number of oocysts in cecum ([2]; 100 ppm in feed): 0.47 ×10^6/chicken
lesion value ([2]; 100 ppm in feed): 0
survival rate ([2]; 100 ppm in feed): 100%
average weight gain ([2]; 100 ppm in feed): 162.0 g/chicken
bloody feces scoring ([2]; 100 ppm in feed): 0
oocyst value ([2]; 100 ppm in feed): 1
relative weight gain rate ([2]; 100 ppm in feed): 96.9%
anticoccidial index (ACI) ([2]; 150 ppm in feed): 201.4
drug efficiency level judged from the anticoccidial index ([2]; 150 ppm in feed): high-efficiency anticoccidial drugs (high-efficiency anticoccidial drugs if ACI≧180)
number of oocysts in cecum ([2]; 150 ppm in feed): 0.16 ×10^6/chicken
lesion value ([2]; 150 ppm in feed): 0
survival rate ([2]; 150 ppm in feed): 100%
average weight gain ([2]; 150 ppm in feed): 171.2 g/chicken
bloody feces scoring ([2]; 150 ppm in feed): 0
oocyst value ([2]; 150 ppm in feed): 1
relative weight gain rate ([2]; 150 ppm in feed): 102.4%
anticoccidial index (ACI) ([2]; 200 ppm in feed): 200.8
drug efficiency level judged from the anticoccidial index ([2]; 200 ppm in feed): high-efficiency anticoccidial drugs (high-efficiency anticoccidial drugs if ACI≧180)
number of oocysts in cecum ([2]; 200 ppm in feed): 0 ×10^6/chicken
lesion value ([2]; 200 ppm in feed): 0
survival rate ([2]; 200 ppm in feed): 100%
average weight gain ([2]; 200 ppm in feed): 168.5 g/chicken
bloody feces scoring ([2]; 200 ppm in feed): 0
oocyst value ([2]; 200 ppm in feed): 0
relative weight gain rate ([2]; 200 ppm in feed): 100.8%

Reference: US9096581B2, “Fluoroethyl thiamine or salts thereof and application thereof in preparation of anticoccidial drugs” (GUANGZHOU ORIGMOL FEED-ADDITIVE CO., LTD, priority 2012, dated 2015)
